Data on 20 molecules can be found in patent US20260042774A1, “CAMPTOTHECIN-7-ETHYLAMINE DERIVATIVE, PREPARATION METHOD THEREFOR, AND USE THEREOF” (HANGZHOU ADCORIS BIOPHARMA CO., LTD, priority 2022, published 2026).

Where two headings read alike, the source gives them in different places.

Type in all cases: cell-based
Holding throughout (details): Homo sapiens

Assay [1] has as its system Human esophageal cancer cells OE33. Kind of assay: Tumor cell growth inhibitory activity (CCK-8), OE33. The protocol: (§1) Human esophageal cancer cells OE33 (human breast adenocarcinoma cells SK-BR-3, or human gastric cancer cells NCI-N87) was cultured in RPMI1640 (Cellmax) supplemented with 10% fetal bovine serum (Cellmax). Cells in the exponential growth phase were diluted to a concentration of 1×10^5 cells/mL by culture medium and added to 96-well cell culture plates at 100 μL per well, then returned back and incubated overnight in a 37° C. incubator with 5% CO2. On the following day, the compounds were diluted to concentrations of 10000 nM, 2000 nM, 400 nM, 80 nM, 16 nM, 3.2 nM, 0.64 nM, and 0.13 nM by culture medium and the diluted compounds were added to the 96-well cell culture plates at 2 μL per well, with three replicate wells for each concentration. Negative control and blank control groups without addition of compounds were added with 2 μL of the dilution liquid per well. After the addition of the compounds, the plates were returned back to the 37° C. incubator with 5% CO2 to continue the incubation for 72 h. After the incubation, the cell culture plates were removed, and the culture medium was aspirated using a pipette. Then, 100 μL of culture medium containing 10% CCK-8 was added to each well, and the plates were incubated at 37° C. for 3 h. After the incubation, the plates were removed, kept in the dark, and placed in an ELISA plate. Absorbance was measured at 630 nm as the reference wavelength and 450 nm as the test wavelength. The IC50 values (Table 2) were calculated using the four-parameter logistic regression method in GraphPad.

Assay [2] concerns human breast adenocarcinoma cells SK-BR-3. Kind of assay: Tumor cell growth inhibitory activity (CCK-8), SK-BR-3. Here is the method: as §1
The subject of assay [3] is human gastric cancer cells NCI-N87. Kind of assay: Tumor cell growth inhibitory activity (CCK-8), NCI-N87. Here is the method:
as §1

In the next assay the test system is NCI-H1975. Kind of assay: Tumor cell growth inhibitory activity, NCI-H1975.
The test system of a further assay is MDA-MB-231. Description: Tumor cell growth inhibitory activity, MDA-MB-231.
[4] abbreviates: OE33 cells, 72 h incubation, CCK-8, read-out: IC50 (nM) for inhibiting the growth of tumor cells, OE33.
The mark [5] stands for this setting: SK-BR-3 cells, 72 h incubation, CCK-8, read-out: IC50 (nM) for inhibiting the growth of tumor cells, SK-BR-3.
The mark [6] stands for this setting: NCI-N87 cells, 72 h incubation, CCK-8, read-out: IC50 (nM) for inhibiting the growth of tumor cells, NCI-N87.
Where [7] appears, read: NCI-H1975 cells, read-out: IC50 (nM) for inhibiting the growth of tumor cells, NCI-H1975.
[8] abbreviates: OE33, 72 h, read-out: IC50 (nM) for inhibiting the growth of tumor cells, OE33, OE33 cells, 72 h incubation, CCK-8.
The mark [9] stands for this setting: SK-BR-3, 72 h, read-out: IC50 (nM) for inhibiting the growth of tumor cells, SK-BR-3, SK-BR-3 cells, 72 h incubation, CCK-8.
Setting [10] is: NCI-N87, 72 h, read-out: IC50 (nM) for inhibiting the growth of tumor cells, NCI-N87, NCI-N87 cells, 72 h incubation, CCK-8.
Where [11] appears, read: NCI-H1975, read-out: IC50 (nM) for inhibiting the growth of tumor cells, NCI-H1975, NCI-H1975 cells.
[12] abbreviates: MDA-MB-231, read-out: IC50 (nM) for inhibiting the growth of tumor cells, MDA-MB-231, MDA-MB-231 cells.
The mark [13] stands for this setting: MDA-MB-231 cells, read-out: IC50 (nM) for inhibiting the growth of tumor cells, MDA-MB-231.

As to `CC[C@@]1(O)C(=O)OCc2c1cc1n(c2=O)Cc2c-1nc1cc(F)c(C)cc1c2CCNC(=O)C(F)F` [Compound 2, 7-(2-Difluoroacetylamino)ethyl-10-methyl-11-fluorocamptothecin], the IC50 in assay [1] (setting [4]) was 9.02 nM; in assay [2] (setting [5]), 16.6 nM; in assay [3] (setting [6]), 1.9 nM; in the assay with NCI-H1975 (setting [7]), 101 nM.

As for `CC[C@@]1(O)C(=O)OCc2c1cc1n(c2=O)Cc2c-1nc1cc3c(cc1c2CCNC1CCC(O)CC1)OCO3` (some centres unmarked) [Compound 26, 7-(2-(4-Hydroxycyclohexyl)amino)ethyl-10,11-methylenedioxycamptothecin], the IC50 in assay [1] (setting [8]) amounted to 129 nM; in assay [2] (setting [9]) it was 218 nM; in assay [3] (setting [10]) it was 150 nM.

In the case of `CC[C@@]1(O)C(=O)OCc2c1cc1n(c2=O)Cc2c-1nc1cc3c(cc1c2CCNC1CCC(OC)CC1)OCO3` (some centres unmarked) [Compound 27, 7-(2-(4-Methoxycyclohexyl)amino)ethyl-10,11-methylenedioxycamptothecin], the concentration for half-maximal inhibition (IC50) in assay [1] (setting [8]) was found to be 7.9 nM; in assay [2] (setting [9]) it was 26.1 nM; in assay [3] (setting [10]), 2.91 nM; with NCI-H1975 (setting [11]), 30.2 nM; in the assay on MDA-MB-231 (setting [12]) it was 155 nM.

With `CC[C@@]1(O)C(=O)OCc2c1cc1n(c2=O)Cc2c-1nc1cc3c(cc1c2CCN[C@@H](C)CO)OCO3` [Compound 28, 7-(2-((S)-Hydroxyisopropyl)amino)ethyl-10,11-methylenedioxycamptothecin], the IC50 in assay [1] (setting [8]) is 49.6 nM; in assay [2] (setting [9]), 77.2 nM; in assay [3] (setting [10]), 61.5 nM; in the assay on NCI-H1975 (setting [11]), 119 nM.

As for `CC[C@@]1(O)C(=O)OCc2c1cc1n(c2=O)Cc2c-1nc1cc(F)c(C)cc1c2CCN1CCNCC1` [Compound 5, 7-(2-(piperazin-4-yl))ethyl-10-methyl-11-fluorocamptothecin], the IC50 in assay [1] (setting [4]) stood at 44 nM; in assay [2] (setting [5]), 60.4 nM; in assay [3] (setting [6]) it was 5.66 nM; with NCI-H1975 (setting [7]) it was 77.3 nM.

With `CC[C@@]1(O)C(=O)OCc2c1cc1n(c2=O)Cc2c-1nc1cc(F)c(F)cc1c2CCNC1CCC(O)CC1` (some centres unmarked) [Compound 12, 7-(2-(4-Hydroxycyclohexyl)amino)ethyl-10,11-difluorocamptothecin], the IC50 came out at 43 nM in assay [1] (setting [4]), 41.7 nM in assay [2] (setting [5]), 5.47 nM in assay [3] (setting [6]) and 85.6 nM in the assay on NCI-H1975 (setting [7]).

As to `CC[C@@]1(O)C(=O)OCc2c1cc1n(c2=O)Cc2c-1nc1cc(F)c(C)cc1c2CCNC1CCOCC1` [Compound 4, 7-(2-(Tetrahydropyran-4-yl)amino)ethyl-10-methyl-11-fluorocamptothecin], the IC50 in assay [1] (setting [4]) was 4.39 nM; in assay [2] (setting [5]), 6.12 nM; in assay [3] (setting [6]) it was 2.48 nM; in the assay with NCI-H1975 (setting [7]) it was 247 nM; with MDA-MB-231 (setting [13]), 321 nM.

Consider `CC[C@@]1(O)C(=O)OCc2c1cc1n(c2=O)Cc2c-1nc1cc3c(cc1c2CCN(CC(F)F)C(=O)CO)OCO3` [Compound 33, 7-(2-(N-Hydroxyacetyl(2-difluoroethyl))amino)ethyl-10,11-methylenedioxycamptothecin], for which the IC50 stood at 11.9 nM in assay [1] (setting [8]), 8.93 nM in assay [2] (setting [9]) and 2.63 nM in assay [3] (setting [10]).

For the molecule `CC[C@@]1(O)C(=O)OCc2c1cc1n(c2=O)Cc2c-1nc1cc3c(cc1c2CCNC1CCOCC1)OCO3` [Compound 25, 7-(2-(Tetrahydropyran-4-yl)amino)ethyl-10,11-methylenedioxycamptothecin], the IC50 in assay [1] (setting [8]) was determined as 4.89 nM; in assay [2] (setting [9]), 4.96 nM; in assay [3] (setting [10]) it was 0.46 nM; in the assay on NCI-H1975 (setting [11]), 15.8 nM; in the assay on MDA-MB-231 (setting [12]), 21.3 nM.

`CC[C@@]1(O)C(=O)OCc2c1cc1n(c2=O)Cc2c-1nc1cc(F)c(C)cc1c2CCN[C@@H](C)CCO` [Compound 9, 7-(2-((S)-4-Hydroxybutan-2-yl)amino)ethyl-10-methyl-11-fluorocamptothecin]: the IC50 came out at 6.59 nM in assay [1] (setting [4]); 14.1 nM in assay [2] (setting [5]); 1.6 nM in assay [3] (setting [6]); 121 nM with NCI-H1975 (setting [7]); 173 nM in the assay on MDA-MB-231 (setting [13]).

Consider `CC[C@@]1(O)C(=O)OCc2c1cc1n(c2=O)Cc2c-1nc1cc3c(cc1c2CCN[C@H]1CCOC1)OCO3` [Compound 35, 7-(2-(N-(S)-Tetrahydrofuran-3-ylamino))ethyl-10,11-methylenedioxycamptothecin], for which the IC50 in assay [1] (setting [8]) is 2.18 nM; in assay [2] (setting [9]), 0.87 nM; in assay [3] (setting [10]), 54 nM; in the assay with NCI-H1975 (setting [11]) it was 18.5 nM; in the assay with MDA-MB-231 (setting [12]), 73.5 nM.

For the molecule `CC[C@@]1(O)C(=O)OCc2c1cc1n(c2=O)Cc2c-1nc1cc3c(cc1c2CCN[C@@H](C)COC)OCCO3` [Compound 45, 7-(2-((S)-Methoxyisopropyl)amino)ethyl-10,11-ethylenedioxycamptothecin], the IC50 in assay [1] (setting [4]) stood at 10.3 nM; in assay [2] (setting [5]) it was 18.5 nM; in assay [3] (setting [6]), 2.46 nM; in the assay with NCI-H1975 (setting [7]), 106 nM; in the assay with MDA-MB-231 (setting [13]) it was 960 nM.

Regarding `CC[C@@]1(O)C(=O)OCc2c1cc1n(c2=O)Cc2c-1nc1cc3c(cc1c2CCNC1CCC(OC)CC1)OCCO3` (some centres unmarked) [Compound 44, 7-(2-(4-Methoxycyclohexyl)amino)ethyl-10,11-ethylenedioxycamptothecin], the IC50 in assay [1] (setting [4]) is 13.8 nM; in assay [2] (setting [5]), 33.6 nM; in assay [3] (setting [6]), 3.54 nM; with NCI-H1975 (setting [7]), 27.1 nM; in the assay with MDA-MB-231 (setting [13]) it was 88.5 nM.

Consider `CC[C@@]1(O)C(=O)OCc2c1cc1n(c2=O)Cc2c-1nc1cc3c(cc1c2CCNc1ncn[nH]1)OCO3` [Compound 41, 7-(2-(1,2,4-Triazol-5-ylamino))ethyl-10,11-methylenedioxycamptothecin], for which the IC50 in assay [1] (setting [8]) was 24.2 nM; in assay [2] (setting [9]), 89.9 nM; in assay [3] (setting [10]) it was 33.9 nM; in the assay with NCI-H1975 (setting [11]), 136 nM.

Regarding `CC[C@@]1(O)C(=O)OCc2c1cc1n(c2=O)Cc2c-1nc1cc3c(cc1c2CCNC(=O)CN=[N+]=[N-])OCO3` [Compound 37, 7-(2-Azidoacetylamino)ethyl-10,11-methylenedioxycamptothecin], the concentration for half-maximal inhibition (IC50) in assay [1] (setting [8]) is 25.2 nM; in assay [2] (setting [9]) it was 41.3 nM; in assay [3] (setting [10]) it was 5.57 nM; in the assay with NCI-H1975 (setting [11]), 229 nM.

Consider `CC[C@@]1(O)C(=O)OCc2c1cc1n(c2=O)Cc2c-1nc1cc(F)c(F)cc1c2CCNCCN=[N+]=[N-]` [Compound 15, 7-(2-(2-Azidoethyl)amino)ethyl-10,11-difluorocamptothecin], for which the IC50 in assay [1] (setting [4]) came to 32.3 nM; in assay [2] (setting [5]), 7.5 nM; in assay [3] (setting [6]), 1.02 nM; in the assay on NCI-H1975 (setting [7]) it was 115 nM.

On to `CC[C@@]1(O)C(=O)OCc2c1cc1n(c2=O)Cc2c-1nc1cc(F)c(F)cc1c2CCNCCO` [Compound 10, 7-(2-Hydroxyethylamino)ethyl-10,11-difluorocamptothecin], for which the values for the concentration for half-maximal inhibition (IC50) in assay [1] (setting [4]), in assay [2] (setting [5]) and in assay [3] (setting [6]) were 58.3 nM, 76.5 nM and 8.17 nM, respectively.

On to `CC[C@@]1(O)C(=O)OCc2c1cc1n(c2=O)Cc2c-1nc1cc(F)c(C)cc1c2CCNC1CCC(O)CC1` (some centres unmarked) [Compound 6, 7-(2-(4-Hydroxycyclohexyl)amino)ethyl-10-methyl-11-fluorocamptothecin], for which the IC50 in assay [1] (setting [4]) came to 24.4 nM; in assay [2] (setting [5]), 28.7 nM; in assay [3] (setting [6]), 3.85 nM; in the assay on NCI-H1975 (setting [7]) it was 298 nM.

On to `CC[C@@]1(O)C(=O)OCc2c1cc1n(c2=O)Cc2c-1nc1cc3c(cc1c2CCN(CCOC)C(=O)CO)OCO3` [Compound 32, 7-(2-(N-Hydroxyacetyl(2-methoxyethyl))amino)ethyl-10,11-methylenedioxycamptothecin], for which the IC50 is 11.6 nM in assay [1] (setting [4]), 6.48 nM in assay [2] (setting [5]) and 2.09 nM in assay [3] (setting [6]).

Take `CC[C@@]1(O)C(=O)OCc2c1cc1n(c2=O)Cc2c-1nc1cc3c(cc1c2CCNS(C)(=O)=O)OCO3` [Compound 38, 7-(2-Methanesulfonamido)ethyl-10,11-methylenedioxycamptothecin]: the IC50 came out at 199 nM in assay [1] (setting [8]), 332 nM in assay [2] (setting [9]), 48 nM in assay [3] (setting [10]) and 282 nM with NCI-H1975 (setting [11]).

The term IC50 denotes the concentration that gives 50% inhibition.
